Experiments:
human recombinant COX-2 = molecular target: T1, human recombinant COX-2 (Homo sapiens, UniProt P35354); test: COX-2 inhibitory activity, colourimetric COX inhibitor screening assay kit; assay type: biochemical
T1 construct: purchased
T1 sequence (P35354 18-604): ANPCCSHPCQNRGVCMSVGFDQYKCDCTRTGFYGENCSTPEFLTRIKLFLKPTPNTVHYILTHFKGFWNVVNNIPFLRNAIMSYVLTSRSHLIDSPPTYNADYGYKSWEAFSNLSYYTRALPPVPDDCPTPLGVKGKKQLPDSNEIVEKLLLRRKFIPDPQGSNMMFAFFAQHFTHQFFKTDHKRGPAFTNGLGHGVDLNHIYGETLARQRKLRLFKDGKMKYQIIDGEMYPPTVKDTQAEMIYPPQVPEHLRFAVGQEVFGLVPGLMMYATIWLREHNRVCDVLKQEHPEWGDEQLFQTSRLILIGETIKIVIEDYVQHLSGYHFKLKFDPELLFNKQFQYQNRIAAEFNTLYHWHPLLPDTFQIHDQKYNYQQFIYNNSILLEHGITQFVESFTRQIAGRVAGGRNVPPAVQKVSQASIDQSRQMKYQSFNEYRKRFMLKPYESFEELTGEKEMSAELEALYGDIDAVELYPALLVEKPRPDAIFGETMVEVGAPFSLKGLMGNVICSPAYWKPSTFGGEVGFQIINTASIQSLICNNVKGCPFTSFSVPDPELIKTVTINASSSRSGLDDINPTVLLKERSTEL
Experimental: (§1) The inhibitory COX activity was assayed colourimetrically by examining the inhibition of the ovine COX-1 and human recombinant COX-2 enzymes as described by George et al.[38], using a COX inhibitor screening assay kit. The detailed procedures were described in the supplementary file.
(§2) The inhibitory COX activity was assayed colourimetrically by examining the inhibition of the ovine COX-1 and human recombinant COX-2 enzymes as described by George et al. ^2, using a COX inhibitory screening assay kit. This assay determines the COX peroxidase activity by monitoring the appearance of N,N,N',N'-tetramethyl-p-phenylenediamine (TMPD). Assay buffer (150 μL 0.1 M Tris–HCl pH 8.0), 10 μL heme and 10μL enzyme (COX-1 or COX-2) were added in each well. Ten μL of each tested sample concentration was added to each well and incubated for 15 minutes at 37°C. After incubation, 20 μL of TMPD was added to each well. For initiating the reaction, 10 μL 10 mM arachidonic acid was added and the plates were further incubated for another 2 minutes at 37°C. For terminating the reaction, 50 μL 1 N HCl and saturated stannous chloride were added.
(§3) Reaction mixture containing assay buffer and heme acted as the blank and a mixture with either COX-1 or COX-2 assay buffer and heme acted as the 100% initial activity (IA). […] The absorbances of oxidized TMPD (blue colour) were read in ELISA plate reader at 590 nm. The % inhibition was calculated using the following formula:
(§4) COX % Inhibition= [(100%IA−Inhibitor)/ 100% IA x 100]. Where, IA: 100% initial activity.
(§5) The concentration at which the tested sample produces 50% inhibition of COX-1 and/or COX-2 (IC50) was determined. The selectivity index (SI) was calculated also as IC50 (COX-1)/ (COX-2).

[1] = system: RAW 264.7 macrophage cell line (NO); test: nitric oxide (NO) inhibitory activity in lipopolysaccharide-stimulated macrophages; assay type: cell-based, murine; details: Mus musculus, RAW264.7; RAW 264.7 cells, 1 µg/mL lipopolysaccharide
Experimental: The detailed procedures were described in the supplementary file.
The cell was incubated at 37 °C in 5% carbon dioxide. RAW 264.7 cells were seeded onto a 96-well plate (1×10^5 cells/well) and incubated for 24 h. […] Followed by incubation, the cells stimulated with 1µg/mL of lipopolysaccharide for another 24 h. The supernatant was gently transferred to new 96-well plates and used for NO determination. L-N 6 - (1-iminoethyl) lysine hydrochloride), is used as standard drug. The absorbance (Abs) was measured in a microplate reader at 540 nm ^3. The percentage inhibition was calculated using the following formula:
Inhibition (%) = 1-[Control-Test] Control × 100.

ovine COX-1 = molecular target: T2, ovine COX-1 (Ovis aries, UniProt P05979); test: COX-1 inhibitory activity, colourimetric COX inhibitor screening assay kit; assay type: biochemical; details: ovine COX-1; read-out: IC50 (COX-1)
T2 construct: purchased
Experimental: as §1, §2, §3, §4, §5

T2 sequence (P05979 25-600): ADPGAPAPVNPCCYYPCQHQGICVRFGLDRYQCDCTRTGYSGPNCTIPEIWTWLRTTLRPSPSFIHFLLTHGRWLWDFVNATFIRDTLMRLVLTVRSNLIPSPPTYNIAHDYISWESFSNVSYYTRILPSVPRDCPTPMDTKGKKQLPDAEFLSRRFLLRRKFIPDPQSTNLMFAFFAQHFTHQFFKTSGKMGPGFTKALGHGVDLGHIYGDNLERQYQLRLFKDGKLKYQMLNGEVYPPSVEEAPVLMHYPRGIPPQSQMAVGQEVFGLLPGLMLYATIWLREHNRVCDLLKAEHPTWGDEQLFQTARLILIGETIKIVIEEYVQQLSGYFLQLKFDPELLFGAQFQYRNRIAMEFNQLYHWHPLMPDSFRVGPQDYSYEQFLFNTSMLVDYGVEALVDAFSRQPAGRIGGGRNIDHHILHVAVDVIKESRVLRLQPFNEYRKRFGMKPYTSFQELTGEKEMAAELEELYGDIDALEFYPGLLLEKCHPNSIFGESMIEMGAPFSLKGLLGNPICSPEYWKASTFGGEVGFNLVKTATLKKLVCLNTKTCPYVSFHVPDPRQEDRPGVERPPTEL

In the case of `COc1cc(-c2coc3cc(O)c(OC)c(O)c3c2=O)cc(O)c1OC` [Irigenin (P3), 3′,5,7-trihydroxy-4′,5′,6 trimethoxyisoflavone], the IC50 (human recombinant COX-2; human recombinant COX-2) is reported as 10.8 ± 0.86 µM, the “SI (COX-1/COX-2)” value (human recombinant COX-2; selectivity index calculated as IC50 (COX-1)/(COX-2)) is reported as 3.26 and the IC50 [1] is reported as 42.5 ± 1.8 µM. For the same compound, the IC50 (ovine COX-1) was 35.2 ± 1.4 µM.
